Results as given in patent US8987193B2, “Nisin derivatives and the use thereof” (University College Cork—National University of Ireland, Cork, priority 2008, dated 2015).
Ends that are not written are not given here.

How the values were obtained:
Experiment in all cases: Deferred antagonism assay
[1] = test system: S. aureus CBC4; format: cell-based; design: key: + = Enhanced bioactivity relative to control; − = Bioactivity equal to or less than control; NA = no activity evident; conditions: producing strain
Method in brief: (§1)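 Well-diffusion testing of purified nisin variants in 0.005% acetic acid, serially diluted, 37° C overnight; AU/ml = reciprocal of last dilution with definite zone × 20. Deferred antagonism: overnight GM17 colonies overlaid with seeded soft agar (0.75%); zone = clearing diameter minus 5 mm.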

[2] = test system: L. monocytogenes CBC1; format: cell-based, Listeria monocytogenes; design: key: + = Enhanced bioactivity relative to control; − = Bioactivity equal to or less than control; NA = no activity evident; conditions: producing strain; L. mono CBC1
Method in brief: as §1

[3] = test system: L. monocytogenes CBC2; format: cell-based, Listeria monocytogenes; design: key: + = Enhanced bioactivity relative to control; − = Bioactivity equal to or less than control; NA = no activity evident; conditions: producing strain; L. mono CBC2
Method in brief: as §1

[4] = test system: L. monocytogenes CBC3; format: cell-based, Listeria monocytogenes; design: key: + = Enhanced bioactivity relative to control; − = Bioactivity equal to or less than control; NA = no activity evident; conditions: producing strain; L. mono CBC3
Method in brief: as §1

[5] = test system: Listeria monocytogenes F6854; format: cell-based; design: key: −, no inhibition; (+), clear zone directly above the colony; +, 1-5 mm zone; ++, 6-10 mm zone; +++, <10 mm zone; conditions: nisin strain; L. monocytogenes F6854
Description: (§2) Deferred antagonism assays were performed by replicating strains on GM17 or GM17 x-gal agar plates and allowing them to grow overnight before overlaying with either GM17/BHI/TS/MH agar (0.75% w/v agar) seeded with the appropriate indicator strain. Zone size was calculated as the diameter of the zone of clearing minus the diameter of bacterial growth (5 mm) For higher throughput screening of N20PXX, XM21VX, XXK22T and XXX banks deferred antagonism assays were performed by replicating strains using a 96 pin replicator (Boekel) or spotting 5 μl of a fresh overnight culture on GM17 agar plates and allowing them to grow overnight. […] Additional sets of indicators were employed to further assess/reassess the bioactivity of a number of strains. […] For well-diffusion assays molten agar was cooled to 48° C. and seeded with the appropriate indicator strain. The inoculated medium was rapidly transferred into sterile Petri plates in 50 ml volumes, allowed to solidify and dried. Wells (4.6 mm in diameter) were then made in the seeded plates. Purified nisin and mutant nisins were resuspended in 0.005% acetic acid, serially diluted, 50 μl volumes were dispensed into the aforementioned wells and the plates incubated at 37° C. overnight. Bioactivity was expressed as arbitrary units/ml (AU/ml) and calculated as the reciprocal of the highest dilution that gave a definite zone multiplied by the conversion factor (i.e. 20 when 50 μl was used) (Ryan et al., 1996).

[6] = test system: Listeria monocytogenes 33028; format: cell-based; design: key: −, no inhibition; (+), clear zone directly above the colony; +, 1-5 mm zone; ++, 6-10 mm zone; +++, <10 mm zone; conditions: nisin strain; L. monocytogenes 33028
Description: as §2

[7] = test system: Listeria monocytogenes 33233; format: cell-based; design: key: −, no inhibition; (+), clear zone directly above the colony; +, 1-5 mm zone; ++, 6-10 mm zone; +++, <10 mm zone; conditions: nisin strain; L. monocytogenes 33233
Description: as §2

[8] = test system: Listeria monocytogenes 33008; format: cell-based; design: key: −, no inhibition; (+), clear zone directly above the colony; +, 1-5 mm zone; ++, 6-10 mm zone; +++, <10 mm zone; conditions: nisin strain; L. monocytogenes 33008
Description: as §2

[9] = test system: Listeria monocytogenes 33015; format: cell-based; design: key: −, no inhibition; (+), clear zone directly above the colony; +, 1-5 mm zone; ++, 6-10 mm zone; +++, <10 mm zone; conditions: nisin strain; L. monocytogenes 33015
Description: as §2

[10] = test system: Listeria monocytogenes 33083; format: cell-based; design: key: −, no inhibition; (+), clear zone directly above the colony; +, 1-5 mm zone; ++, 6-10 mm zone; +++, <10 mm zone; conditions: nisin strain; L. monocytogenes 33083
Description: as §2

[11] = test system: Listeria monocytogenes SLCC 7194; format: cell-based; design: key: −, no inhibition; (+), clear zone directly above the colony; +, 1-5 mm zone; ++, 6-10 mm zone; +++, <10 mm zone; conditions: nisin strain; L. monocytogenes SLCC 7194
Description: as §2

[12] = test system: Listeria monocytogenes 33068; format: cell-based; design: key: −, no inhibition; (+), clear zone directly above the colony; +, 1-5 mm zone; ++, 6-10 mm zone; +++, <10 mm zone; conditions: nisin strain; L. monocytogenes 33068
Description: as §2

[13] = test system: Listeria monocytogenes 33115; format: cell-based; design: key: −, no inhibition; (+), clear zone directly above the colony; +, 1-5 mm zone; ++, 6-10 mm zone; +++, <10 mm zone; conditions: nisin strain; L. monocytogenes 33115
Description: as §2

[14] = test system: Listeria monocytogenes 33226; format: cell-based; design: key: −, no inhibition; (+), clear zone directly above the colony; +, 1-5 mm zone; ++, 6-10 mm zone; +++, <10 mm zone; conditions: nisin strain; L. monocytogenes 33226
Description: as §2

[15] = test system: L. monocytogenes EGDe; format: cell-based; design: key: −, no inhibition; (+), clear zone directly above the colony; +, 1-5 mm zone; ++, 6-10 mm zone; +++; conditions: nisin strain; Listeria monocytogenes EDGe
Description: as §2

Row | Substance | Bioactivity relative to control [1] | Bioactivity relative to control [2] | Bioactivity relative to control [3] | Bioactivity relative to control [4] | Activity score (zone) [5] | Activity score (zone) [6] | Activity score (zone) [7] | Activity score (zone) [8] | Activity score (zone) [9] | Activity score (zone) [10] | Activity score (zone) [11] | Activity score (zone) [12] | Activity score (zone) [13] | Activity score (zone) [14] | Activity score (zone) [15]
1 | NisinA M21S (ITSISLCTPGCKTGALMGCNSKTATCHCSIHVSK; not fully specified; also: lantibiotic nisin: dehydrated residues and thioether rings not placed; UniProt P13068 24-57, looked up, variant M21S) [nisin A derivative, hinge substitution M21S] | + | − | + | + | + (+, 1-5 mm zone) | ++ (++, 6-10 mm zone) | + (+, 1-5 mm zone) | + (+, 1-5 mm zone) | + (+, 1-5 mm zone) | + (+, 1-5 mm zone) | + (+, 1-5 mm zone) | + (+, 1-5 mm zone) | (+) | + (+, 1-5 mm zone) | ++ (++, 6-10 mm zone)
2 | NisinA M21I (ITSISLCTPGCKTGALMGCNIKTATCHCSIHVSK; not fully specified; also: lantibiotic: lanthionine rings and dehydro residues not placed; UniProt P13068 24-57, looked up, variant M21I) [nisin A derivative, hinge substitution M21I] | + | − | + | − | + (+, 1-5 mm zone) | + (+, 1-5 mm zone) | + (+, 1-5 mm zone) | − | + (+, 1-5 mm zone) | + (+, 1-5 mm zone) | + (+, 1-5 mm zone) | − | − | + (+, 1-5 mm zone) | + (+, 1-5 mm zone)
3 | NisinA K22A (ITSISLCTPGCKTGALMGCNMATATCHCSIHVSK; not fully specified; also: lantibiotic: lanthionine rings and dehydro residues not placed; UniProt P13068 24-57, looked up, variant K22A) [nisin A derivative, hinge substitution K22A] | − | − | + | − | + (+, 1-5 mm zone) | + (+, 1-5 mm zone) | + (+, 1-5 mm zone) | − | + (+, 1-5 mm zone) | + (+, 1-5 mm zone) | + (+, 1-5 mm zone) | − | + (+, 1-5 mm zone) | + (+, 1-5 mm zone) | + (+, 1-5 mm zone)
4 | NisinA M21G (ITSISLCTPGCKTGALMGCNGKTATCHCSIHVSK; not fully specified; also: lantibiotic: lanthionine rings and dehydro residues not placed; UniProt P13068 24-57, looked up, variant M21G) [nisin A derivative, hinge substitution M21G] | + | − | + | − | − | − | − | − | − | − | − | − | − | − | −
